Reference: patent US12479849B2, “EGFR inhibitors for the treatment of cancer” (Hoffmann-La Roche Inc., priority 2019, dated 2025)

What follows are molecules tested against T1, EGFR TMLRCS (Homo sapiens, UniProt P00533, C797S/L858R/T790M) (assay: HTRF Phospho EGFR TMLRCS Assay (Cellular)). Settings: BaF3-TMLRCS cell line, 4 hours incubation, Phospho-EGFR HTRF readout.
T1 construct: host or cells: BaF3-TMLRCS (Ba/F3 cells, kept under puromycin selection)
Type: cell-based
Outline: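 BaF3 cells expressing EGFR L858R/T790M/C797S, 20000/well, treated with compound in dose response for 4 h at 37 °C, 5% CO2. After lysis, phospho-EGFR detected by HTRF with cryptate and d2 antibodies over 4 h at room temperature. Signal taken as 665/616 nm ratio ×10000, normalized.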

T1 sequence (P00533 25-1210 T790M/C797S/L858R): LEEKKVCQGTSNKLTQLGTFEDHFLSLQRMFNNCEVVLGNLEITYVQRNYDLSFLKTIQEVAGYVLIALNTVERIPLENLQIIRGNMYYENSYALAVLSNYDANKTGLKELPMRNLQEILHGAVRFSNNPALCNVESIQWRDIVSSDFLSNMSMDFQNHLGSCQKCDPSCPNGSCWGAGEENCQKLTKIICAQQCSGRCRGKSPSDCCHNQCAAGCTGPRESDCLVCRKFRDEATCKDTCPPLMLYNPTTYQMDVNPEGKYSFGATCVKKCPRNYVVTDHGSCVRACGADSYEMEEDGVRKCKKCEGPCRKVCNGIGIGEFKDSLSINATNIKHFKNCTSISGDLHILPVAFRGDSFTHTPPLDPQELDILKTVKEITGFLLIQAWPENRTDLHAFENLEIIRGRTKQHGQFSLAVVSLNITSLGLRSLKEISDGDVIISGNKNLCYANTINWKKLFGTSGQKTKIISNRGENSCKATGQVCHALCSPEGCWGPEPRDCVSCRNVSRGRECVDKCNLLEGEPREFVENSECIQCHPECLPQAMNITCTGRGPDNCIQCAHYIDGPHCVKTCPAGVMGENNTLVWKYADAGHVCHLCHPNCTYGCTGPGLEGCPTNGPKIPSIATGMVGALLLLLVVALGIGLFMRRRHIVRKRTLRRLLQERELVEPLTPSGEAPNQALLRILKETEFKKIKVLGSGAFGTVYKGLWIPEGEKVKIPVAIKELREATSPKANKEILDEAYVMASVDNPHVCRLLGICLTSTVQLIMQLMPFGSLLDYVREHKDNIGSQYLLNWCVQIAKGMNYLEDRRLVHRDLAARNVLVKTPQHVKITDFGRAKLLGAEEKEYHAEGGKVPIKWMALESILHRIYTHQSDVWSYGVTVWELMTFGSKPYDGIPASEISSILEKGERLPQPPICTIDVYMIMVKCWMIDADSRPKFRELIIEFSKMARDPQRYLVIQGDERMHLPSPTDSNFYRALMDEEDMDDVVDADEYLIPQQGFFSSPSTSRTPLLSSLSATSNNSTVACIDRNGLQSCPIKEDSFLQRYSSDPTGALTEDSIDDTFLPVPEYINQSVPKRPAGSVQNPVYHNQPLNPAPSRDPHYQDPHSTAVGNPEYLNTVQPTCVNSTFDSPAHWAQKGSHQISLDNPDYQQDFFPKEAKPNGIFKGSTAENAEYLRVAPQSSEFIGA

| Compound | IC50 [µM] |
| --- | --- |
| CCN1CCN(c2ccc(-c3cc(C)c4cn(C(C(=O)Nc5nccs5)c5ncn6c5C[C@@H](F)C6)nc4c3C)cc2)CC1 (stereo partly drawn) [Example 121, 2-(6-(4-(4-Ethylpiperazin-1-yl)phenyl)-4,7-dimethyl-2H-indazol-2-yl)-2-((R)-6-fluoro-6,7-dihydro-5H-pyrrolo[1,2-c]imidazol-1-yl)-N-(thiazol-2-yl)acetamide] | 0.008 |
| CCN(CC)CC1(c2ccc(-c3cc(C)c4cn(C(C(=O)Nc5nccs5)c5ncn6c5C[C@@H](F)C6)nc4c3C)cc2)CC1 (stereo partly drawn) [Example 122, 2-(6-(4-(1-((Diethylamino)methyl)cyclopropyl)phenyl)-4,7-dimethyl-2H-indazol-2-yl) ((R)-6-fluoro-6,7-dihydro-5H-pyrrolo[1,2-c]imidazol-1-yl)-N-(thiazol-2-yl)acetamide] | 0.019 |
| CCN(C)CCc1ccc(-c2cc(C)c3cn(C(C(=O)Nc4nccs4)c4ncn5c4C[C@@H](F)C5)nc3c2C)cc1 (stereo partly drawn) [Example 123] | 0.015 |
| Cc1cc(-c2ccc(N3CCOCC3)nc2)c(C)c2nn(C(C(=O)Nc3nccs3)c3ncn4c3C[C@@H](F)C4)cc12 (stereo partly drawn) [Example 124, 2-(4,7-Dimethyl-6-(6-morpholinopyridin-3-yl)-2H-indazol-2-yl)-2-((R)-6-fluoro-6,7-dihydro-5H-pyrrolo[1,2-c]imidazol-1-yl)-N-(thiazol-2-yl)acetamide] | 0.005 |
| CCc1c(-c2ccc(N3CCOCC3)cc2)cc(Cl)c2cn(C(C(=O)Nc3nccs3)c3ncn4c3C[C@@H](F)C4)nc12 (stereo partly drawn) [Example 125, 2-(4-Chloro-7-ethyl-6-(4-morpholinophenyl)-2H-indazol-2-yl)-2-((R)-6-fluoro-6,7-dihydro-5H-pyrrolo[1,2-c]imidazol-1-yl)-N-(thiazol-2-yl)acetamide] | 0.011 |
| Cc1cc(-c2ccc(N3CCOCC3)cc2)c(Cl)c2nn(C(C(=O)Nc3nccs3)c3ncn4c3CCC4)cc12 (stereo not drawn) [Example 126, 2-(7-Chloro-4-methyl-6-(4-morpholinophenyl)-2H-indazol-2-yl)-2-(6,7-dihydro-5H-pyrrolo[1,2-c]imidazol-1-yl)-N-(thiazol-2-yl)acetamide] | 0.009 |
| Cc1cc(-c2ccc(N3CCOCC3)cc2)c(Cl)c2nn(C(C(=O)Nc3nccs3)c3ncn4c3C[C@@H](F)C4)cc12 (stereo partly drawn) [Example 128, 2-(7-Chloro-4-methyl-6-(4-morpholinophenyl)-2H-indazol-2-yl)-2-((R)-6-fluoro-6,7-dihydro-5H-pyrrolo[1,2-c]imidazol-1-yl)-N-(thiazol-2-yl)acetamide] | 0.005 |
| COCCN1CCC(c2ccc(-c3cc(C)c4cn(C(C(=O)Nc5nccs5)c5ncn6c5C[C@@H](F)C6)nc4c3Cl)cc2)CC1 (stereo partly drawn) [Example 130, 2-(7-Chloro-6-(4-(1-(2-methoxyethyl)piperidin-4-yl)phenyl)-4-methyl-2H-indazol-2-yl)-2-((R)-6-fluoro-6,7-dihydro-5H-pyrrolo[1,2-c]imidazol-1-yl)-N-(thiazol-2-yl)acetamide] | 0.012 |
| O=C(Nc1nccs1)C(c1ncn2c1CCC2)n1cc2c(Cl)cc(-c3ccc(N4CCOCC4)cc3)c(Br)c2n1 (stereo not drawn) [Example 134, 2-(7-Bromo-4-chloro-6-(4-morpholinophenyl)-2H-indazol-2-yl)-2-(6,7-dihydro-5H-pyrrolo[1,2-c]imidazol-1-yl)-N-(thiazol-2-yl)acetamide] | 0.032 |
